Laboratory results: patent US12077503B2, “Substituted cyclic amides and their use as herbicides” (FMC CORPORATION, priority 2015, dated 2024)

Key:
Type in all cases: in vivo
[1] = tested on: blackgrass (Alopecurus myosuroides); assay: Test A postemergence; details: Alopecurus myosuroides, post-emergence, 240 h, read-out: Plant response rating, Blackgrass
Procedure, shortened: (§1)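 Ratings of 0 (no effect) to 100 (complete control) come from visual comparison with untreated controls roughly 10 d after treatment. Test chemicals, formulated in a non-phytotoxic solvent mixture with surfactant, were applied either as a preemergence directed soil spray on seeded soil or postemergence to one- to two-leaf plants 2 to 10 cm tall.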

[2] = tested on: pigweed (Amaranthus retroflexus); assay: Test A postemergence; details: Amaranthus retroflexus, post-emergence, 240 h, read-out: Plant response rating, Pigweed
Procedure, shortened: as §1

[3] = tested on: corn (Zea mays); assay: Test A postemergence; details: Zea mays, post-emergence, 240 h
Procedure, shortened: as §1

[4] = tested on: ragweed (common ragweed, Ambrosia elatior); assay: Test A postemergence; details: Ambrosia artemisiifolia, post-emergence, 240 h, read-out: Plant response rating, Ragweed
Procedure, shortened: as §1

[5] = tested on: giant foxtail (Setaria faberii); assay: Test A postemergence; details: Setaria faberi, post-emergence, 240 h, read-out: Plant response rating, Foxtail, Giant
Procedure, shortened: as §1

[6] = tested on: barnyardgrass (Echinochloa crus-galli); assay: Test A postemergence; details: Echinochloa crus-galli, post-emergence, 240 h, read-out: Plant response rating, Barnyardgrass
Procedure, shortened: as §1

[7] = tested on: wheat (Triticum aestivum); assay: Test A postemergence; details: Triticum aestivum, post-emergence, 240 h, read-out: Plant response rating, Wheat
Procedure, shortened: as §1

[8] = tested on: Galium (catchweed bedstraw, Galium aparine); assay: Test A postemergence; details: Galium, post-emergence, 240 h, read-out: Plant response rating, Galium
Procedure, shortened: as §1

[9] = tested on: ryegrass, Italian (Italian ryegrass, Lolium multiflorum); assay: Test A postemergence; details: Lolium multiflorum, post-emergence, 240 h, read-out: Plant response rating, Ryegrass, Italian
Procedure, shortened: as §1

[10] = tested on: Kochia (Kochia scoparia); assay: Test A postemergence; details: Bassia scoparia, post-emergence, 240 h, read-out: Plant response rating, Kochia
Procedure, shortened: as §1

[11] = tested on: pigweed (Amaranthus retroflexus); assay: Test A preemergence; details: Amaranthus retroflexus, pre-emergence, 240 h
[12] = tested on: ragweed (common ragweed, Ambrosia elatior); assay: Test A preemergence; details: Ambrosia artemisiifolia, pre-emergence, 240 h
Procedure, shortened: as §1

[13] = tested on: giant foxtail (Setaria faberii); assay: Test A preemergence; details: Setaria faberi, pre-emergence, 240 h
Procedure, shortened: as §1

[14] = tested on: barnyardgrass (Echinochloa crus-galli); assay: Test A preemergence; details: Echinochloa crus-galli, pre-emergence, 240 h
Procedure, shortened: as §1

[15] = tested on: ryegrass, Italian (Italian ryegrass, Lolium multiflorum); assay: Test A preemergence; details: Lolium multiflorum, pre-emergence, 240 h
Procedure, shortened: as §1

[16] = tested on: Kochia (Kochia scoparia); assay: Test A preemergence; details: Bassia scoparia, pre-emergence, 240 h
Procedure, shortened: as §1

[17] = tested on: barnyardgrass (Echinochloa crus-galli); assay: Test B flooded paddy test; details: Echinochloa crus-galli, 250 g ai/ha, Flood; 0 to 100 scale where 0 is no effect and 100 is complete control; read-out: Barnyardgrass plant response rating
Procedure, shortened: (§2)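 Percent control, visually estimated after 13–15 d in the greenhouse on a 0–100 basis, compares treated pots with untreated ones; compound was put into paddy water 3 cm above the soil when plants had two leaves.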

[18] = tested on: sedge, umbrella (small-flower umbrella sedge, Cyperus difformis); assay: Test B flooded paddy test; details: Cyperus difformis, 250 g ai/ha, Flood; 0 to 100 scale where 0 is no effect and 100 is complete control; read-out: Sedge, Umbrella plant response rating
Procedure, shortened: as §2

[19] = tested on: rice (Oryra sativa); assay: Test B flooded paddy test; details: Oryza sativa, 250 g ai/ha, Flood; 0 to 100 scale where 0 is no effect and 100 is complete control; read-out: Rice plant response rating
Procedure, shortened: as §2

[20] = tested on: ducksalad (Heteranthera limosa); assay: Test B flooded paddy test; details: Heteranthera limosa, 250 g ai/ha, Flood; 0 to 100 scale where 0 is no effect and 100 is complete control; read-out: Ducksalad plant response rating
Procedure, shortened: as §2

[21] = 125 g ai/ha, Postemergence, visual injury after approximately 10 d, 0 to 100 scale where 0 is no effect and 100 is complete control
[22] = 500 g ai/ha, postemergence, visual injury, 0 to 100 scale (0 no effect, 100 complete control), approx. 10 d

CSc1ccccc1NC(=O)[C@H]1C(=O)N(C)CC[C@@H]1c1ccc(OC(F)(F)F)cc1 [Compound 1001]
0%: pest or weed control at 125 g/ha [1, 21] | pest or weed control at 500 g/ha [1, 22] | pest or weed control at 125 g/ha [2, 21] | pest or weed control at 500 g/ha [2, 22] | Corn plant response rating (crop injury, 0 = no effect, 100 = complete kill) at 125 g/ha [3, 21] | Corn plant response rating (crop injury, 0 = no effect, 100 = complete kill) at 500 g/ha [3, 22] | pest or weed control at 125 g/ha [4, 21] | pest or weed control at 500 g/ha [4, 22] | pest or weed control at 125 g/ha [5, 21] | pest or weed control at 500 g/ha [5, 22] | pest or weed control at 125 g/ha [6, 21] | pest or weed control at 500 g/ha [6, 22] | plant injury at 125 g/ha [7, 21] | plant injury at 500 g/ha [7, 22] | pest or weed control at 125 g/ha [8, 21] | pest or weed control at 500 g/ha [8, 22] | pest or weed control at 125 g/ha [9, 21] | pest or weed control at 500 g/ha [9, 22] | pest or weed control at 125 g/ha [10, 21] | pest or weed control at 500 g/ha [10, 22] | pest or weed control at 125 g/ha ([11]; 125 g ai/ha, Preemergence, visual injury rating after approximately 10 d, read-out: Pigweed plant response rating (0 to 100 scale, 0 is no effect, 100 is complete control)) | pest or weed control at 500 g/ha ([11]; 500 g ai/ha, preemergence, visual injury rating about 10 d after treatment, 0 to 100 scale (0 no effect, 100 complete control), read-out: Pigweed plant response rating) | pest or weed control at 125 g/ha ([12]; 125 g ai/ha, Preemergence, visual injury rating after approximately 10 d, read-out: Ragweed plant response rating (0 to 100 scale, 0 is no effect, 100 is complete control)) | pest or weed control at 500 g/ha ([12]; 500 g ai/ha, preemergence, visual injury rating about 10 d after treatment, 0 to 100 scale (0 no effect, 100 complete control), read-out: Ragweed plant response rating) | pest or weed control at 125 g/ha ([13]; 125 g ai/ha, Preemergence, visual injury rating after approximately 10 d, read-out: Foxtail, Giant plant response rating (0 to 100 scale, 0 is no effect, 100 is complete control)) | pest or weed control at 500 g/ha ([13]; 500 g ai/ha, preemergence, visual injury rating about 10 d after treatment, 0 to 100 scale (0 no effect, 100 complete control), read-out: Foxtail, Giant plant response rating) | pest or weed control at 125 g/ha ([14]; 125 g ai/ha, Preemergence, visual injury rating after approximately 10 d, read-out: Barnyardgrass plant response rating (0 to 100 scale, 0 is no effect, 100 is complete control)) | pest or weed control at 500 g/ha ([14]; 500 g ai/ha, preemergence, visual injury rating about 10 d after treatment, 0 to 100 scale (0 no effect, 100 complete control), read-out: Barnyardgrass plant response rating) | pest or weed control at 125 g/ha ([15]; 125 g ai/ha, Preemergence, visual injury rating after approximately 10 d, read-out: Ryegrass, Italian plant response rating (0 to 100 scale, 0 is no effect, 100 is complete control)) | pest or weed control at 500 g/ha ([15]; 500 g ai/ha, preemergence, visual injury rating about 10 d after treatment, 0 to 100 scale (0 no effect, 100 complete control), read-out: Ryegrass, Italian plant response rating) | pest or weed control at 125 g/ha ([16]; 125 g ai/ha, Preemergence, visual injury rating after approximately 10 d, read-out: Kochia plant response rating (0 to 100 scale, 0 is no effect, 100 is complete control)) | pest or weed control at 500 g/ha ([16]; 500 g ai/ha, preemergence, visual injury rating about 10 d after treatment, 0 to 100 scale (0 no effect, 100 complete control), read-out: Kochia plant response rating) | pest or weed control at 250 g/ha [17] | pest or weed control at 250 g/ha [18] | pest or weed control at 250 g/ha [19] | pest or weed control at 250 g/ha [20]
